ChEMBL document CHEMBL1121791, “Computer-assisted structure-activity studies of chemical carcinogens. Aromatic amines” (J Med Chem, 1981)

How the values were obtained:
Format in all cases: functional, organism-based
Rattus norvegicus [1] = assay: Carcinogenic activity on all sites after intraperitoneal administration
Rattus norvegicus [2] = assay: Carcinogenic activity on breast after intraperitoneal administration
Rattus norvegicus [3] = assay: Carcinogenic activity on all sites after oral administration
Rattus norvegicus [4] = assay: Carcinogenic activity on breast after oral administration of the compound
Rattus norvegicus [5] = assay: Carcinogenic activity on mixed data after oral administration
Rattus norvegicus [6] = assay: Carcinogenic activity on liver after oral administration
Rattus norvegicus [7] = assay: Carcinogenic activity on ear duct after oral administration
Rattus norvegicus [8] = assay: Carcinogenic activity on other sites after oral administration
Rattus norvegicus [9] = assay: Carcinogenic activity on all sites after subcutaneous administration
Rattus norvegicus [10] = assay: Carcinogenic activity on liver after subcutaneous administration
Rattus norvegicus [11] = assay: Carcinogenic activity on other sites after subcutaneous administration
Rattus norvegicus [12] = assay: Carcinogenic activity on ear duct after subcutaneous administration
Rattus norvegicus [13] = assay: Carcinogenic activity on breast after subcutaneous administration
Rattus norvegicus [14] = assay: Carcinogenic activity on breast after oral administration
Rattus norvegicus [15] = assay: Compound was tested for carcinogenic activity on mixed data after subcutaneous administration of the compound; + denotes carcinogenic activity.

Measured: Activity

CC(=O)N(O)c1cccc2c1Cc1ccccc1-2
Carcinogenic activity: Rattus norvegicus [1] | Rattus norvegicus [2]

CNc1ccc2c(c1)Cc1ccccc1-2
Carcinogenic activity: Rattus norvegicus [3] | Rattus norvegicus [4] | Rattus norvegicus [5] | Rattus norvegicus [6] | Rattus norvegicus [7] | Rattus norvegicus [8]

CC(=O)Nc1ccc2c(c1)Cc1cc(NC(C)=O)ccc1-2
Carcinogenic activity: Rattus norvegicus [3] | Rattus norvegicus [4] | Rattus norvegicus [5] | Rattus norvegicus [6] | Rattus norvegicus [7] | Rattus norvegicus [8]

CC(=O)Nc1ccc2c(c1)Cc1ccc(F)cc1-2
Carcinogenic activity: Rattus norvegicus [3] | Rattus norvegicus [4] | Rattus norvegicus [5] | Rattus norvegicus [6] | Rattus norvegicus [7] | Rattus norvegicus [8]

Nc1ccc(/C=C/c2ccc(N)cc2Cl)c(Cl)c1
Carcinogenic activity: Rattus norvegicus [9] | Rattus norvegicus [10]

CC(=O)N(C(C)=O)c1ccc2c(c1)Cc1ccccc1-2
Carcinogenic activity: Rattus norvegicus [3] | Rattus norvegicus [4] | Rattus norvegicus [5] | Rattus norvegicus [6] | Rattus norvegicus [7] | Rattus norvegicus [8]

CC(=O)N(C(C)=O)c1ccc(/C=C/c2ccccc2)cc1
Carcinogenic activity: Rattus norvegicus [9] | Rattus norvegicus [11] | Rattus norvegicus [12]

Nc1ccc(/C=C/c2ccc(N)cc2)cc1
Carcinogenic activity: Rattus norvegicus [9] | Rattus norvegicus [12]

CC(=O)N(O)c1ccc2c(ccc3ccccc32)c1
Carcinogenic activity: Rattus norvegicus [9] | Rattus norvegicus [13] | Rattus norvegicus [11]

COc1cc(N)ccc1-c1ccccc1
Carcinogenic activity: Rattus norvegicus [9] | Rattus norvegicus [11]

COc1ccc2c(c1)Cc1cc(NC(C)=O)ccc1-2
Carcinogenic activity: Rattus norvegicus [3] | Rattus norvegicus [4] | Rattus norvegicus [5] | Rattus norvegicus [6] | Rattus norvegicus [7]

Cc1cc(C)c(-c2ccc(N)cc2C)c(C)c1
Carcinogenic activity: Rattus norvegicus [9] | Rattus norvegicus [11]

CC(=O)ON(C(C)=O)c1ccc2c(c1)Cc1ccccc1-2
Carcinogenic activity: Rattus norvegicus [9] | Rattus norvegicus [11]

N#Cc1cc(/C=C/c2ccccc2)ccc1N
Carcinogenic activity: Rattus norvegicus [9] | Rattus norvegicus [11] | Rattus norvegicus [10]

[O-][n+]1ccc(NO)c2ccccc21
Carcinogenic activity: Rattus norvegicus [3] | Rattus norvegicus [14] | Rattus norvegicus [8]

CC(=O)N(O)c1ccc2c(c1)Cc1cc(F)ccc1-2
Carcinogenic activity: Rattus norvegicus [3] | Rattus norvegicus [4] | Rattus norvegicus [5] | Rattus norvegicus [6] | Rattus norvegicus [7] | Rattus norvegicus [8]

CC(=O)N(OC(=O)c1ccccc1)c1ccc2c(c1)Cc1ccccc1-2
Carcinogenic activity: Rattus norvegicus [9] | Rattus norvegicus [11]

Cc1cc(Cc2ccc(N)c(C)c2)ccc1N
Carcinogenic activity: Rattus norvegicus [3] | Rattus norvegicus [4] | Rattus norvegicus [5] | Rattus norvegicus [6] | Rattus norvegicus [8]

Nc1ccc2c(ccc3ccccc32)c1
Carcinogenic activity: Rattus norvegicus [3] | Rattus norvegicus [14]

CC(=O)Nc1csc(-c2ccc([N+](=O)[O-])o2)n1
Carcinogenic activity: Rattus norvegicus [9] | Rattus norvegicus [13] | Rattus norvegicus [11]

NNc1nc(-c2ccc([N+](=O)[O-])cc2)cs1
Carcinogenic activity: Rattus norvegicus [3] | Rattus norvegicus [14]

Cc1cc(/C=C/c2ccccc2)ccc1N
Carcinogenic activity: Rattus norvegicus [9] | Rattus norvegicus [11]

Nc1c2ccccc2cc2ccccc12
Carcinogenic activity: Rattus norvegicus [9] | Rattus norvegicus [13] | Rattus norvegicus [15]

Nc1ccc(/C=C/c2ccccc2)cc1
Carcinogenic activity: Rattus norvegicus [3] | Rattus norvegicus [14] | Rattus norvegicus [7]

CC(=O)Nc1ccc2c(c1)-c1ccccc1C2
Carcinogenic activity: Rattus norvegicus [1] | Rattus norvegicus [2]

CC(=O)Nc1ccc2c(ccc3ccccc32)c1
Carcinogenic activity: Rattus norvegicus [3] | Rattus norvegicus [14] | Rattus norvegicus [5] | Rattus norvegicus [6] | Rattus norvegicus [7] | Rattus norvegicus [8]

Cc1ccc(C)c(-c2ccc(N)cc2C)c1
Carcinogenic activity: Rattus norvegicus [9] | Rattus norvegicus [11]

O=CNNc1nc(-c2ccc([N+](=O)[O-])o2)cs1
Carcinogenic activity: Rattus norvegicus [3] | Rattus norvegicus [14] | Rattus norvegicus [8]

Nc1ccc(/C=C/c2ccc(N)c(Cl)c2)cc1Cl
Carcinogenic activity: Rattus norvegicus [9] | Rattus norvegicus [11]

CC(=O)ON(C(C)=O)c1ccc(-c2ccccc2)cc1
Carcinogenic activity: Rattus norvegicus [9] | Rattus norvegicus [11]

CC(=O)Nc1cccc2c1Cc1ccccc1-2
Carcinogenic activity: Rattus norvegicus [1] | Rattus norvegicus [2]

NNc1nc(-c2ccc([N+](=O)[O-])o2)cs1
Carcinogenic activity: Rattus norvegicus [3] | Rattus norvegicus [14]

COc1cc(/C=C/c2ccccc2)c(OC)cc1N
Carcinogenic activity: Rattus norvegicus [9] | Rattus norvegicus [12]

Cc1cc(-c2ccc(N)c(C)c2)ccc1N
Carcinogenic activity: Rattus norvegicus [9] | Rattus norvegicus [13] | Rattus norvegicus [11] | Rattus norvegicus [15] | Rattus norvegicus [7]

O=C(Nc1ccc2c(c1)Cc1ccccc1-2)C(F)(F)F
Carcinogenic activity: Rattus norvegicus [3] | Rattus norvegicus [4] | Rattus norvegicus [5] | Rattus norvegicus [6] | Rattus norvegicus [7]

Cc1cc(-c2ccccc2C)ccc1N
Carcinogenic activity: Rattus norvegicus [3] | Rattus norvegicus [14] | Rattus norvegicus [5] | Rattus norvegicus [7] | Rattus norvegicus [8]

CC(=O)N(O)c1ccc2c(c1)-c1ccccc1C2
Carcinogenic activity: Rattus norvegicus [1] | Rattus norvegicus [2]

Nc1ccc(/C=C/c2ccc(F)cc2)cc1
Carcinogenic activity: Rattus norvegicus [9] | Rattus norvegicus [11] | Rattus norvegicus [10] | Rattus norvegicus [5] | Rattus norvegicus [12]

CC(=O)ON(C(C)=O)c1cccc2ccc3ccccc3c12
Carcinogenic activity: Rattus norvegicus [9] | Rattus norvegicus [11]

Cc1ccc(/N=N/c2cc(C)ccc2N)cc1
Carcinogenic activity: Rattus norvegicus [14]

CC(=O)Nc1ccc2c(c1)Cc1cc(F)ccc1-2
Carcinogenic activity: Rattus norvegicus [3] | Rattus norvegicus [4] | Rattus norvegicus [5] | Rattus norvegicus [6] | Rattus norvegicus [7]

ONc1ccc2c(c1)Cc1ccccc1-2
Carcinogenic activity: Rattus norvegicus [9] | Rattus norvegicus [13] | Rattus norvegicus [11] | Rattus norvegicus [15] | Rattus norvegicus [12]

CC(=O)Nc1cc2c(cc1F)-c1ccccc1C2
Carcinogenic activity: Rattus norvegicus [3] | Rattus norvegicus [4] | Rattus norvegicus [5] | Rattus norvegicus [6] | Rattus norvegicus [7]

Cc1cc(/N=N/c2ccccc2C)ccc1N
Carcinogenic activity: Rattus norvegicus [9] | Rattus norvegicus [10]

Nc1cccc2c1ccc1ccccc12
Carcinogenic activity: Rattus norvegicus [3] | Rattus norvegicus [14]

CN(C)c1ccc(/C=C/c2ccccc2F)cc1
Carcinogenic activity: Rattus norvegicus [3] | Rattus norvegicus [4] | Rattus norvegicus [5] | Rattus norvegicus [6] | Rattus norvegicus [7]

CC(=O)Nc1ccc2c(c1)Cc1c(F)cccc1-2
Carcinogenic activity: Rattus norvegicus [3] | Rattus norvegicus [4] | Rattus norvegicus [5] | Rattus norvegicus [6] | Rattus norvegicus [7]

CN(C)c1ccc2c(c1)Cc1ccccc1-2
Carcinogenic activity: Rattus norvegicus [3] | Rattus norvegicus [4] | Rattus norvegicus [5] | Rattus norvegicus [6] | Rattus norvegicus [7] | Rattus norvegicus [8]

Cc1cc(N)ccc1/C=C/c1ccccc1
Carcinogenic activity: Rattus norvegicus [9] | Rattus norvegicus [11]

N/C(=N\O)c1ccc([N+](=O)[O-])o1
Carcinogenic activity: Rattus norvegicus [3] | Rattus norvegicus [14] | Rattus norvegicus [5]

Nc1ccc(-c2ccccc2)cc1
Carcinogenic activity: Rattus norvegicus [3] | Rattus norvegicus [14]
